Read-outs that look alike come from different tables or passages of the source.
Columns and labels:
[1] = molecular target: Recombinant human Menin protein (2-610) / MLL polypeptide binding (Homo sapiens (Human), UniProt O00255); experiment: Menin and MLL protein binding at a molecular level (fluorescence polarization method); details: inhibition of Menin / MLL polypeptide binding
Excerpt: Example 3: Determination of the Activity of the Compounds of the Present Invention on Menin and MLL Protein Binding at a Molecular Level (Fluorescence Polarization Method)
1. Reagents, Materials and Instruments:
• Recombinant human Menin protein (2-610): ChemPartner, CP2021020801; • MLL polypeptide (6-FAM-Ahx-SG-40): GL Biochem, 865700; • Trizma® hydrochloride buffer solution (Tris): Sigma, T2194-1 L; • NaCl: Invitrogen, AM9760G; • TCEP: Sigma, 646547; • DMSO: Sigma, D4540; • 384-well plate: Corning, 4514; • Envision: PerkinElmer.
2. Preparation of Reaction Solutions
• 1) Buffer solution: 20 mL of Tris and 4 mL of NaCl were added respectively to 376 mL of ddH2O, with pH adjusted to 7.5, and TCEP was added before testing with a dilution ratio of 1:500. • 2) 5× test compounds: the test compound was subjected to gradient dilution with the buffer solution to 5-fold the reaction concentration, so that the final concentrations of the compound were 1.000, 0.333, 0.111, 0.037, 0.012, 0.004, 0.001 and 0.0005 μM, respectively. • 3) 2.5× Menin protein reaction solution: the Menin protein was diluted to 5 nM with the buffer solution. • 4) 2.5×MLL polypeptide reaction solution: the MLL polypeptide was diluted to 5 nM with the buffer solution.
1) Binding Reaction (20 μL System)
4 μL of 5× test compound was added to each reaction well of the 384-well plate, and the corresponding volume of 10% DMSO was added to the control wells. Except the control wells, 8 μL of Menin protein reaction solution was added to each well. The reaction solution was incubated at room temperature for 30 minutes, and then 8 μL of MLL polypeptide reaction solution was added to each well. The final concentrations of DMSO in the test compound wells and control wells were all 2%. The 384-well plate was sealed and incubated at room temperature for 30 minutes in the dark.
Three control groups were set up: • a blank control group only containing a buffer solution; • a negative control group only containing MLL polypeptide reaction solution; and • a positive control group containing Menin protein reaction solution and MLL polypeptide reaction solution.
The vertical polarization S value and the horizontal polarization P value (excitation wavelength was 480 nm, and emission wavelength was 535 nm) were measured with Envision.
Corrected S is the S value of the negative control group—the S value of the blank control group
Corrected P is the P value of the negative control group—the P value of the blank control group
(§1) • calculated by using software XL-Fit™ (version 5.3) supplied by ID Business Solutions (Guildford, UK), which is an additional software to Microsoft Excel.

[2] = tested on: MV-4-11 cells (human acute myelogenous leukemia cell line carrying MLL-AF4 mutation); experiment: Cell proliferation assay, MV-4-11 (CellTiter-Glo); type: cell-based; details: Homo sapiens, MV4-11, 72 h
Description: Example 4 Cell Proliferation Assay
MV-4-11 (ATCC, CRL-9591), a human acute myelogenous leukemia cell line carrying MLL-AF4 mutation. Cells were cultured in an IMDM medium containing 10% heat-inactivated fetal bovine serum (HIFBS) and supplemented with 50 μM β-mercaptoethanol.
2. Reagents, Materials and Instruments:
• IMDM culture solution: GIBCO, 12440-053; • HIFBS: GIBCO, 10100-147; • β-mercaptoethanol: Sigma, M3148; • CellTiter-Glo® 2.0 assay kit (CTG): Promega, G9243; • DMSO: Sigma, D4540; • 96-well cell culture plate: Corning, 3903; • Envision: PerkinElmer.
MV-4-11 cells were resuspended in a medium, added to a 96-well plate at a density of 3000 cells/well with a volume of 100 μL/well, and cultured in a cell incubator at 5% CO2 and 37° C. for 4 hours. The test compound subjected to gradient dilution with the medium was added to a cell culture plate, and the final concentrations of the compound were 1.100, 0.367, 0.122, 0.041, 0.014, 0.005, 0.002 and 0.001 μM, respectively. The corresponding volume of DMSO diluent was added to a blank control well, and the final concentrations of DMSO in the experimental group and control group were both 0.1%. The cell plate was placed in a cell incubator at 5% CO2 and 37° C. and cultured for 3 days.
On day 0 and day 3 of the treatment, 50 μL/well CTG reagent was added to the cell plate and shaken at room temperature in the dark for 10 min, and then the chemiluminescence value of each well was measured with Envision.
[formula] • wherein: • luminescence valuetest sample: the chemiluminescence value of a cell well treated with the test compound for 3 days. • luminescence valueday 0: the chemiluminescence value of a cell well at day 0. • luminescence valuecell well: the chemiluminescence value of a cell well not treated with the compound for 3 days.
as §1

[3] = MV-4-11 cells, 3 days treatment, CellTiter-Glo, read-out: GI50

Recombinant human Menin protein (2-610) / MLL polypeptide binding, sequence (O00255 2-610): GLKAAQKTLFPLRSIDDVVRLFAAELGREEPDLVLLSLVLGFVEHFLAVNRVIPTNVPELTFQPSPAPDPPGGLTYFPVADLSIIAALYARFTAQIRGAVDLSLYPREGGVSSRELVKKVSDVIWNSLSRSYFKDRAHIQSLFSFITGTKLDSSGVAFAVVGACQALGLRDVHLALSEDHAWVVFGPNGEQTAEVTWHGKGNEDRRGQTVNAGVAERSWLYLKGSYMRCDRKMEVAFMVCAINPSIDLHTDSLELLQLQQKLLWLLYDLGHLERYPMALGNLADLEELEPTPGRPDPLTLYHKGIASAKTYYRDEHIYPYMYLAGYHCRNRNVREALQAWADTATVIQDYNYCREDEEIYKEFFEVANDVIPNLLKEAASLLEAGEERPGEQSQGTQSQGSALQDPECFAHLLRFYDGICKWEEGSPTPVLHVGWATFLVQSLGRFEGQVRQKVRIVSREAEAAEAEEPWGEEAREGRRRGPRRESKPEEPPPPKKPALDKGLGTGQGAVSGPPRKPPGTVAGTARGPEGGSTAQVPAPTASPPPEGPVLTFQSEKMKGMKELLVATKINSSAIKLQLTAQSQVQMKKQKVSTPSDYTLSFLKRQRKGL

| SMILES | IC50 [1] [nM] | GI50 [2, 3] [nM] | GI50 [2] [nM] |
| --- | --- | --- | --- |
| CCN(C(=O)c1cc(F)ccc1Oc1nncnc1N1CC2(CCN(CC3(N(C)C(=O)COC)CC3)CC2)C1)C(C)C [Compound 144, N-ethyl-5-fluoro-N-isopropyl-2-((5-(7-((1-(2-methoxy-N-methylacetamido)cyclopropyl)methyl)-2,7-diazaspiro[3.5]nonan-2-yl)-1,2,4-triazin-6-yl)oxy)benzamide] | 616 | 644 | – |
| CCN(C(=O)c1cc(F)ccc1Oc1nncnc1N1CC2(CCN(CC3CCN(c4ccn(C)n4)CC3)CC2)C1)C(C)C [Compound 79] | 57.7 | 78 | – |
| COc1cc(N2CCC(CN3CCC4(CC3)CN(c3ncnnc3Oc3ccc(F)cc3C(=O)O)C4)CC2)nnc1OC [Compound 184, 2-((5-(7-((1-(5,6-dimethoxypyridazin-3-yl)piperidin-4-yl)methyl)-2,7-diazaspiro[3.5]nonan-2-yl)-1,2,4-triazin-6-yl)oxy)-5-fluorobenzoic acid] | > 100 | > 1100 | – |
| CCN(C(=O)c1cc(F)ccc1Oc1nncnc1N1CC2(CCN(C(=O)C3CCN(c4ccccn4)CC3)CC2)C1)C(C)C [Compound 172, N-ethyl-5-fluoro-N-isopropyl-2-((5-(7-(1-(pyridin-2-yl)piperidine-4-carbonyl)-2,7-diazaspiro[3.5]nonan-2-yl)-1,2,4-triazin-6-yl)oxy)benzamide] | > 200 | 76 | – |
| CCN(C(=O)c1cc(F)ccc1Oc1nncnc1N1CC2(CCN(Cc3ccc4c(cc(C(=O)O)n4CCO)c3C)CC2)C1)C(C)C [Compound 159] | 450 | 642 | – |
| CCN(C(=O)c1cc(F)ccc1Oc1nncnc1N1CC2(CCN(CC3CCN(c4nnc(OC)cc4C)CC3)CC2)C1)C(C)C [Compound 98] | 7.1 | 12 | – |
| CCN(C(=O)c1cc(F)ccc1Oc1nncnc1N1CC2(CCN(CC3CCN(c4cnc(C#N)cn4)CC3)CC2)C1)C(C)C [Compound 49] | 18.5 | 24 | – |
| CCN(C(=O)c1cc(F)ccc1Oc1nncnc1N1CC2(CCC(CN3CCN(c4ccccn4)CC3)CC2)C1)C(C)C [Compound 173, N-ethyl-5-fluoro-N-isopropyl-2-((5-(7-((4-(pyridin-2-yl)piperazin-1-yl)methyl)-2-azaspiro[3.5]nonan-2-yl)-1,2,4-triazin-6-yl)oxy)benzamide] | 750 | – | 292 |
| CCN(C(=O)c1cc(F)ccc1Oc1nncnc1N1CC2(CCN(CC3CCN(c4cc(C)cnn4)CC3)CC2)C1)C(C)C [Compound 85] | 4.2 | 6 | – |
| CCN(C(=O)c1cc(F)ccc1Oc1nncnc1N1CC2(CCN(CC3CCN(c4ccc(N)nn4)CC3)CC2)C1)C(C)C [Compound 87] | 37.2 | 156 | – |
| CCN(C(=O)c1cc(F)ccc1Oc1nncnc1N1CC2(CCN(CC3CCC(n4ccccc4=O)CC3)CC2)C1)C(C)C (stereo not drawn) [Compound 122] | > 200 | 119 | – |
| CCN(C(=O)c1cc(F)ccc1Oc1nnc(NC)nc1N1CC2(CCN(Cc3ccc4c(cc(C#N)n4CCO)c3C)CC2)C1)C(C)C [Compound 156] | 43.7 | 48 | – |
| C=CC(=O)N1CCC(c2ccc(CN3CCC4(CC3)CN(c3ncnnc3Oc3ccc(F)cc3C(=O)N(CC)C(C)C)C4)cc2)CC1 [Compound 182] | > 1000 | 430 | – |
| CCN(C(=O)c1cc(F)ccc1Oc1nncnc1N1CC2(CCN(Cc3ccc4c(cc(C#N)n4CCO)c3C)CC2)C1)C(C)C [Compound 154] | 0.8 | 2 | – |
| CCN(C(=O)c1cc(F)ccc1Oc1nncnc1N1CC2(CCN(CC3CCN(c4cc(C(N)=O)ccn4)CC3)CC2)C1)C(C)C [Compound 52] | 0.9 | 3 | – |

Now from value to molecule, other results behind:

| IC50 [1] [nM] | GI50 [2, 3] [nM] | SMILES | GI50 [2] [nM] |
| --- | --- | --- | --- |
| 1.5 | 3 | CCN(C(=O)c1cc(F)ccc1Oc1nncnc1N1CC2(CCN(CC3CCN(c4cccc(C(C)(C)O)n4)CC3)CC2)C1)C(C)C [Compound 121] | – |
| 14.6 | 27 | CCN(C(=O)c1cc(F)ccc1Oc1nncnc1N1CC2(CCN(CC3CCN(c4ccc(C#N)cn4)CC3(C)C)CC2)C1)C(C)C (stereo not drawn) [Compound 126] | – |
| 2.7 | 9 | CCN(C(=O)c1cc(F)ccc1Oc1nncnc1N1CC2(CCN(CC3CCN(c4cccc(CO)n4)CC3)CC2)C1)C(C)C [Compound 132, N-ethyl-5-fluoro-2-((5-(7-((1-(6-(hydroxymethyl)pyridin-2-yl)piperidin-4-yl)methyl)-2,7-diazaspiro[3.5]nonan-2-yl)-1,2,4-triazin-6-yl)oxy)-N-isopropylbenzamide] | – |
| 54.9 | 117 | CCN(C(=O)c1cc(F)ccc1Oc1nncnc1N1CC2(CCN(CC3CCN(c4ccc(=O)n(C)n4)CC3)CC2)C1)C(C)C [Compound 81] | – |
| 3.2 | 8 | CCN(C(=O)c1cc(F)ccc1Oc1nncnc1N1CC2(CCN(CC3CCN(C(=O)C4CC(C)(C)C4)CC3)CC2)C1)C(C)C [Compound 4] | – |
| 23.2 | 56 | CCN(C(=O)c1cc(F)ccc1Oc1nncnc1N1CC2(CCN(Cc3ccc(NS(C)(=O)=O)cc3C)CC2)C1)C(C)C [Compound 23] | – |
| 75 | 113 | CCN(C(=O)c1cc(F)ccc1Oc1nncnc1N1CC2(CCN(CC3CCN(C(=O)c4cnn(C)c4)CC3)CC2)C1)C(C)C [Compound 16] | – |
| 955 | 883 | CCN(C(=O)c1cc(F)ccc1Oc1nncnc1N1CC2(CCN(Cc3ccc4oc(C(=O)NC)c(C)c4c3)CC2)C1)C(C)C [Compound 75] | – |
| 31.6 | 37 | CCN(C(=O)c1cc(F)ccc1Oc1nncnc1N1CC2(CCN(CC3(N(C)CCOC)CC3)CC2)C1)C(C)C [Compound 140] | – |
| 73.8 | 60 | C[C@H]1COCCN1C(=O)c1cc(F)ccc1Oc1nncnc1N1CC2(CCN(CC3CCN(c4ccccn4)CC3)CC2)C1 [Compound 77] | – |
| 5.1 | 20 | CCN(C(=O)c1cc(F)ccc1Oc1nncnc1N1CC2(CCN(CC3CCN(C(=O)C4(O)CC4)CC3)CC2)C1)C(C)C [Compound 11] | – |
| 15.9 | 28 | COc1cc(N2CCC(CN3CCC4(CC3)CN(c3ncnnc3Oc3ccc(F)cc3)C4)CC2)nnc1OC [Compound 102] | – |
| 41.5 | 66 | CCN(C(=O)c1cc(F)ccc1Oc1nncnc1N1CC2(CCN(CC3CCN(c4ccncc4C(N)=O)CC3)CC2)C1)C(C)C [Compound 150, 4-(4-((2-(6-(2-(ethyl(isopropyl)carbamoyl)-4-fluorophenoxy)-1,2,4-triazin-5-yl)-2,7-diazaspiro[3.5]nonan-7-yl)methyl)piperidin-1-yl)nicotinamide] | – |
| 6.6 | 16 | CCN(C(=O)c1cc(F)ccc1Oc1nncnc1N1CC2(CCN(CC3CCN(c4nc(C#N)co4)CC3)CC2)C1)C(C)C [Compound 80] | – |
| 1.1 | 6 | Cc1ccc(N2CCC(CN3CCC4(CC3)CN(c3ncnnc3Oc3ccc(F)cc3-c3ccnn3C(C)C)C4)CC2)nn1 [Compound 86] | – |

— US20260055108A1, “TRIAZINE COMPOUNDS AND USES THEREOF” (HUTCHMED LIMITED, priority 2022, published 2026)
